Assay results as given in US5037739A, “N-acetylmannosamine dehydrogenase, process for its production, method for quantitatively analyzing N-acetylmannosamine or sialic acid, and kit for the quantitative analysis” (Noda Institute for Scientific Research, priority 1986, dated 1991).
Like-named read-outs stand apart in the source and are kept apart here.

Assays:
[1] = molecular target: T1, N-AMDH (Flavobacterium sp., UniProt P22441); assay: N-AMDH enzymatic activity in solutions containing metallic ions and inhibitors; format: biochemical, Flavobacterium sp. No. 141-8; settings: for remaining activity at 2000 µM: read-out: Residual activity (%)
T1 construct: N-AMDH was accumulated in the bacterial cells; endogenous in cells; host or cells: Flavobacterium sp; No. 141-8 (natural producer isolated from soil); enzyme purified from the disrupted bacterial cells
Experimental: The table presented above illustrates the enzymatic activity of N-AMDH measured in solutions containing various metallic ions and inhibitors at a concentration of 2 mM. There is known no substance making a particular contribution to its activation and stabilization.
(§1) To 1.8 ml of 0.05M tris-hydrochloric acid buffer (pH 8.2) is added 0.1 ml of 60 mM NAD solution. After keeping the mixture at 37° C. for 10 minutes, 10 microliters of enzyme solution is added, and then 0.1 ml of 0.3M N-AM is added. By homogenizing the mixture, the reaction is started. The reaction mixture is immediately transferred into a light absorbance measurement cell (light path 1 cm) kept at 37° C., and absorbance is measured over a period of 5 minutes (if necessary, over a longer period of time) at intervals of one minute at a wavelength of 340 nm. A quantity of enzyme capable of forming 1 micromole of NADH in one minute is taken as one unit.

[2] = molecular target: T1, N-AMDH; assay: Action and substrate-specificity of N-AMDH (substrates and electron acceptors); format: biochemical, Flavobacterium sp. No. 141-8; settings: for Action of N-AMDH upon the sugar as substrate: in the presence of NAD
Experimental: In the presence of water, N-acetylmannosaminolactone is spontaneously hydrolyzed to form N-acetylmannosaminic acid. Accordingly, the reaction is substantially irreversible.
as §1

[3] = test system: Flavobacterium sp. No. 141-8; assay: Growth resistance of the producing strain (penicillin, sodium chloride); format: cell-based
Source text: (1) Penicillin resistance: Growth even at 100 units/ml.
(2) Sodium chloride resistance: No growth above 2%.

[4] = pH stability and heat stability (inactivation conditions) of N-AMDH; format: physicochemical, Flavobacterium sp. No. 141-8
Experimental: The buffer solutions used there are potassium phosphate buffer, tris-hydrochloric acid buffer and glycine-sodium hydroxide buffer.
At temperatures exceeding 45° C., it rapidly loses its activity. When heat treated at 45° C. for 10 minutes, it is stable at a pH of 8.5-9.5, while it is particularly instable at a pH value of 7 or below.

[5] = Acrylamide gel isoelectric focusing of N-AMDH; format: physicochemical, Flavobacterium sp. No. 141-8
Source text: As measured by acrylamide gel isoelectric focusing, its isoelectric point is 4.9.

[6] = N-AMDH activity with metallic ion or inhibitor at 2 mM, None = 100
[7] = heat treated at 45° C. for 10 minutes

T1 sequence (P22441 2-271 limits assumed): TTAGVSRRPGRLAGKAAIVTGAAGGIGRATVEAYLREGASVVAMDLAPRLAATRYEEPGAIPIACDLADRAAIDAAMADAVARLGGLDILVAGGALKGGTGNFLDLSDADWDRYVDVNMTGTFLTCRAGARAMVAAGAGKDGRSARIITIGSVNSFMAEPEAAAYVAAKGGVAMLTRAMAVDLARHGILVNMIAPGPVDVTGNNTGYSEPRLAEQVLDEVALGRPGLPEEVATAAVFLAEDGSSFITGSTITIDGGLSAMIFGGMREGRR

## CCCCCCCCCCCCOS(=O)(=O)O [SDS]
[1]; [6]
  remaining activity at 2000 µM: 18%

## Oc1cccc2cccnc12 [8-Hydroxyquinoline]
[1]
  Residual activity (%): 95%

## NC(=O)c1ccc[n+]([C@@H]2O[C@H](COP(=O)([O-])OP(=O)(O)OC[C@H]3O[C@@H](n4cnc5c(N)ncnc54)[C@H](OP(=O)(O)O)[C@@H]3O)[C@@H](O)[C@H]2O)c1 [NADP, nicotinamide adenine dinucleotide phosphate]
[2]
  Utilization as electron acceptor by N-AMDH: hardly utilizes

## c1ccc(-c2ccccn2)nc1 [α,α'-Dipyridyl]
[1]; [6]
  remaining activity at 2000 µM: 97%

## CC(=O)N[C@H]1C(O)O[C@H](CO)[C@H](O)[C@@H]1O (stereo partly shown) [N-acetylgalactosamine]
[2]
  Action of N-AMDH upon the sugar as substrate: hardly acts or does not act at all

## CC1(C)S[C@@H]2[C@H](NC(=O)Cc3ccccc3)C(=O)N2[C@H]1C(=O)O [Penicillin]
[3]
  Penicillin resistance: concentration at which the strain still grows: ≥ 100 units/ml

## O=C1C(Cl)=CC(=Nc2ccc(O)cc2)C=C1Cl [2,6-dichlorophenol indophenol]
[2]
  Utilization as electron acceptor by N-AMDH: hardly utilizes

## CC(=O)N[C@@H]1C(O)O[C@H](CO)[C@@H](O)[C@@H]1O (stereo partly shown) [N-AM, N-acetylmannosamine]
[2]
  Action of N-AMDH upon the sugar as substrate: oxidizes N-AM into N-acetylmannoaminolactone

## [Cl-].[Na+] [Sodium chloride]
[3]
  Sodium chloride resistance: concentration above which there is no growth: above 2%

## c1cnc2c(c1)ccc1cccnc12 [o-Phenanthroline]
[1]; [6]
  remaining activity at 2000 µM: 87%

## CC(=O)N[C@H]1C(O)O[C@H](CO)[C@@H](O)[C@@H]1O (stereo partly shown) [N-acetylglucosamine]
[2]
  Action of N-AMDH upon the sugar as substrate: hardly acts or does not act at all

## [Cl][Hg][Cl] [HgCl2]
[1]; [6]
  Residual activity (%): 6%

## O=C(O)c1cc[c]([Hg][Cl])cc1 [PCMB]
[1]; [6]
  Residual activity (%): 95%

## O=S(=O)([O-])[O-].[Cu+2] [CuSO4]
[1]; [6]
  Residual activity (%): 79%

## O=S(=O)([O-])[O-].[Zn+2] [ZnSO4]
[1]; [6]
  Residual activity (%): 71%

## O=C(CO)N[C@@H]1C(O)O[C@H](CO)[C@@H](O)[C@@H]1O (stereo partly shown) [N-glycolylmannosamine]
[2]
  Action of N-AMDH upon the sugar as substrate: acts upon N-glycolylmannosamine in the same manner as above

## O=C(O)CN(CCN(CC(=O)O)CC(=O)O)CC(=O)O [EDTA]
[1]
  remaining activity at 2000 µM: 89%

## NC(=O)CI [Iodoacetamide]
[1]; [6]
  remaining activity at 2000 µM: 87%

## N-acetylmannosamine dehydrogenase [N-AMDH]
[4]; FIG. 4, heat treated for minutes
  Temperature up to which activity is kept stable on heat treatment: ≤ 45 °C
[4]; [7]
  pH at which it is particularly instable when heat treated: ≤ 7
  pH at which it is stable when heat treated: 8.5-9.5
[5]
  Isoelectric point: 4.9

## [N-]=[N+]=[N-].[Na+] [NaN3]
[1]; [6]
  Residual activity (%): 83%

## Nc1ncnc2c1ncn2[C@@H]1O[C@H](COP(=O)(O)O)[C@@H](O)[C@H]1O [5'-AMP]
[1]; [6]
  remaining activity at 2000 µM: 76%

## O=S(=O)([O-])[O-].[Ni+2] [NiSO4]
[1]; [6]
  Residual activity (%): 69%
